{
  "source": "paper PMC7939384",
  "about": "“In crystallo screening for proline analog inhibitors of the proline cycle enzyme PYCR1” (The Journal of Biological Chemistry, 2021)",
  "test_system": "MCF10A hRAS^V12 spheroids",
  "experiment": "Spheroid growth based on protein content",
  "format": "cell-based",
  "settings": "5 mM, 5 days",
  "data": [
    {"smiles": "O=CN1CCC[C@H]1C(=O)O", "note": "[NFLP, N-formyl L-proline]", "values": [
      {"measurement": "reduction of spheroid growth based on protein content compared with control", "value": 50, "unit": "%"}
    ]}
  ]
}
